Measurements published in patent US10131652B2, “Pyrimidinyloxy benzene derivatives as herbicides” (E. I. DU PONT DE NEMOURS AND COMPANY, priority 2014, dated 2018).

Tests used:
Experiment in all cases: Test F pre-/postemergence plant response
Type in all cases: in vivo
Conditions in all cases: scale 0 to 100
[1] = test system: arrowleaf sida (Sida rhombifolia)
From the text: (§1) Seeds of plant species selected from corn (Zea mays), soybean (Glycine max), velvetleaf (Abutilon theophrasti), lambsquarters (Chenopodium album), wild poinsettia (Euphorbia heterophylla), palmer pigweed (Amaranthus palmeri), waterhemp (common waterhemp, Amaranthus rudis), surinam grass (Brachiaria decumbens), large (Lg) crabgrass (Digitaria sanguinalis), Brazilian crabgrass (Digitaria horizontalis), fall panicum (Panicum dichotomiflorum), giant foxtail (Setaria faberii), green foxtail (Setaria viridis), goosegrass (Eleusine indica), johnsongrass (Sorghum halepense), ragweed (common ragweed, Ambrosia elatior), barnyardgrass (Echinochloa crus-galli), sandbur (southern sandbur, Cenchrus echinatus), arrowleaf sida (Sida rhombifolia), Italian ryegrass (Lolium multiflorum), dayflower (Virginia (VA) dayflower, Commelina virginica), field bindweed (Convolvulus arvensis), cocklebur (common cocklebur, Xanthium strumarium), momingglory (Ipomoea coccinea), nightshade (eastern black nightshade, Solanum ptycanthum), kochia (Kochia scoparia), yellow nutsedge (Cyperus esculentus), and hairy beggarticks (Bidens pilosa), were planted into a silt loam soil and treated preemergence with test chemicals formulated in a non-phytotoxic solvent mixture which included a surfactant.
(§2) At the same time, plants from these crop and weed species and also waterhemp_RES1, (ALS & Triazine resistant common waterhemp, Amaranthus rudis), and waterhemp_RES2, (ALS & HPPD resistant common waterhemp, Amaranthus rudis) were treated with postemergence applications of test chemicals formulated in the same manner. Plants ranged in height from 2 to 18 cm for postemergence treatments (1- to 4-leaf stage).
(§3) Treated plants and controls were maintained in a greenhouse for 14 to 21 days, after which time all species were compared to controls and visually evaluated. Plant response ratings, summarized in Table F, are based on a scale of 0 to 100 where 0 is no effect and 100 is complete control. A dash (-) response means no test result.

corn (Zea mays) = test system: corn (Zea mays)
From the text: as §1, §2, §3

[2] = test system: fall panicum (Panicum dichotomiflorum)
From the text: as §1, §2, §3

[3] = test system: field bindweed (Convolvulus arvensis)
From the text: as §1, §2, §3

[4] = test system: goosegrass (Eleusine indica)
From the text: as §1, §2, §3

[5] = test system: green foxtail (Setaria viridis)
From the text: as §1, §2, §3

[6] = test system: hairy beggarticks (Bidens pilosa)
From the text: as §1, §2, §3

[7] = test system: johnsongrass (Sorghum halepense)
From the text: as §1, §2, §3

kochia (Kochia scoparia) = test system: kochia (Kochia scoparia)
From the text: as §1, §2, §3

[8] = test system: nightshade (eastern black nightshade, Solanum ptycanthum)
From the text: as §1, §2, §3

[9] = test system: palmer pigweed (Amaranthus palmeri)
From the text: as §1, §2, §3

[10] = test system: ragweed (common ragweed, Ambrosia elatior)
From the text: as §1, §2, §3

[11] = test system: velvetleaf (Abutilon theophrasti)
From the text: as §1, §2, §3

[12] = test system: waterhemp (common waterhemp, Amaranthus rudis)
From the text: as §1, §2, §3

[13] = test system: wild poinsettia (Euphorbia heterophylla)
From the text: as §1, §2, §3

[14] = test system: yellow nutsedge (Cyperus esculentus)
From the text: as §1, §2, §3

What does the source list for Cc1cc(-c2ccccc2Oc2ncc(Cl)cn2)on1 [Compound 58]?
Plant response rating, Arrowleaf Sida ([1]; 8 g ai/ha Postemergence): 50; Plant response rating, Arrowleaf Sida ([1]; 8 g ai/ha Preemergence): 20; Plant response rating, Arrowleaf Sida ([1]; 16 g ai/ha Postemergence): 70; Plant response rating, Arrowleaf Sida ([1]; 16 g ai/ha Preemergence): 0; Plant response rating, Arrowleaf Sida ([1]; 31 g ai/ha Postemergence): 60; Plant response rating, Arrowleaf Sida ([1]; 31 g ai/ha Preemergence): 35; Plant response rating, Arrowleaf Sida ([1]; 62 g ai/ha Postemergence): 75; Plant response rating, Arrowleaf Sida ([1]; 62 g ai/ha Preemergence): 75; Plant response rating, Arrowleaf Sida ([1]; 125 g ai/ha Postemergence): 90; Plant response rating, Arrowleaf Sida ([1]; 125 g ai/ha Preemergence): 98; Plant response rating, Corn (corn (Zea mays); 8 g ai/ha Postemergence): 0; Plant response rating, Corn (corn (Zea mays); 8 g ai/ha Preemergence): 0; Plant response rating, Corn (corn (Zea mays); 16 g ai/ha Postemergence): 0; Plant response rating, Corn (corn (Zea mays); 16 g ai/ha Preemergence): 0; Plant response rating, Corn (corn (Zea mays); 31 g ai/ha Postemergence): 0; Plant response rating, Corn (corn (Zea mays); 31 g ai/ha Preemergence): 0; Plant response rating, Corn (corn (Zea mays); 62 g ai/ha Postemergence): 5; Plant response rating, Corn (corn (Zea mays); 62 g ai/ha Preemergence): 0; Plant response rating, Corn (corn (Zea mays); 125 g ai/ha Postemergence): 5; Plant response rating, Corn (corn (Zea mays); 125 g ai/ha Preemergence): 0; Plant response rating, Panicum, Fall ([2]; 8 g ai/ha Postemergence): 15; Plant response rating, Panicum, Fall ([2]; 8 g ai/ha Preemergence): 0; Plant response rating, Panicum, Fall ([2]; 16 g ai/ha Postemergence): 0; Plant response rating, Panicum, Fall ([2]; 16 g ai/ha Preemergence): 35; Plant response rating, Panicum, Fall ([2]; 31 g ai/ha Postemergence): 0; Plant response rating, Panicum, Fall ([2]; 31 g ai/ha Preemergence): 65; Plant response rating, Panicum, Fall ([2]; 62 g ai/ha Postemergence): 10; Plant response rating, Panicum, Fall ([2]; 125 g ai/ha Postemergence): 15; Plant response rating, Panicum, Fall ([2]; 125 g ai/ha Preemergence): 100; Plant response rating, Panicum, Fall ([2]; Preemergence): 90; Plant response rating, Field Bindweed ([3]; 8 g ai/ha Postemergence): 10; Plant response rating, Field Bindweed ([3]; 8 g ai/ha Preemergence): 0; Plant response rating, Field Bindweed ([3]; 16 g ai/ha Postemergence): 10; Plant response rating, Field Bindweed ([3]; 16 g ai/ha Preemergence): 0; Plant response rating, Field Bindweed ([3]; 31 g ai/ha Postemergence): 20; Plant response rating, Field Bindweed ([3]; 31 g ai/ha Preemergence): 0; Plant response rating, Field Bindweed ([3]; 62 g ai/ha Postemergence): 30; Plant response rating, Field Bindweed ([3]; 62 g ai/ha Preemergence): 0; Plant response rating, Field Bindweed ([3]; 125 g ai/ha Postemergence): 50; Plant response rating, Field Bindweed ([3]; 125 g ai/ha Preemergence): 0; Plant response rating, Goosegrass ([4]; 8 g ai/ha Preemergence): 0; Plant response rating, Goosegrass ([4]; 16 g ai/ha Preemergence): 0; Plant response rating, Goosegrass ([4]; 31 g ai/ha Preemergence): 5; Plant response rating, Goosegrass ([4]; 125 g ai/ha Preemergence): 75; Plant response rating, Goosegrass ([4]; Preemergence): 5; Plant response rating, Foxtail, Green ([5]; 8 g ai/ha Preemergence): 0; Plant response rating, Foxtail, Green ([5]; 16 g ai/ha Preemergence): 0; Plant response rating, Foxtail, Green ([5]; 31 g ai/ha Preemergence): 0; Plant response rating, Foxtail, Green ([5]; 125 g ai/ha Preemergence): 25; Plant response rating, Foxtail, Green ([5]; Preemergence): 0; Plant response rating, Beggarticks ([6]; 8 g ai/ha Postemergence): 40; Plant response rating, Beggarticks ([6]; 8 g ai/ha Preemergence): 0; Plant response rating, Beggarticks ([6]; 16 g ai/ha Postemergence): 40; Plant response rating, Beggarticks ([6]; 16 g ai/ha Preemergence): 0; Plant response rating, Beggarticks ([6]; 31 g ai/ha Postemergence): 50; Plant response rating, Beggarticks ([6]; 31 g ai/ha Preemergence): 0; Plant response rating, Beggarticks ([6]; 62 g ai/ha Postemergence): 50; Plant response rating, Beggarticks ([6]; 62 g ai/ha Preemergence): 10; Plant response rating, Beggarticks ([6]; 125 g ai/ha Postemergence): 65; Plant response rating, Beggarticks ([6]; 125 g ai/ha Preemergence): 20; Plant response rating, Johnsongrass ([7]; 8 g ai/ha Preemergence): 0; Plant response rating, Johnsongrass ([7]; 16 g ai/ha Preemergence): 0; Plant response rating, Johnsongrass ([7]; 31 g ai/ha Preemergence): 0; Plant response rating, Johnsongrass ([7]; 125 g ai/ha Preemergence): 20; Plant response rating, Johnsongrass ([7]; Preemergence): 0; Plant response rating, Kochia (kochia (Kochia scoparia); 8 g ai/ha Postemergence): 30; Plant response rating, Kochia (kochia (Kochia scoparia); 8 g ai/ha Preemergence): 0; Plant response rating, Kochia (kochia (Kochia scoparia); 16 g ai/ha Postemergence): 40; Plant response rating, Kochia (kochia (Kochia scoparia); 16 g ai/ha Preemergence): 0; Plant response rating, Kochia (kochia (Kochia scoparia); 31 g ai/ha Postemergence): 30; Plant response rating, Kochia (kochia (Kochia scoparia); 31 g ai/ha Preemergence): 0; Plant response rating, Kochia (kochia (Kochia scoparia); 62 g ai/ha Postemergence): 60; Plant response rating, Kochia (kochia (Kochia scoparia); 125 g ai/ha Postemergence): 75; Plant response rating, Kochia (kochia (Kochia scoparia); 125 g ai/ha Preemergence): 30; Plant response rating, Kochia (kochia (Kochia scoparia); Preemergence): 0; Plant response rating, Nightshade ([8]; 8 g ai/ha Preemergence): 0; Plant response rating, Nightshade ([8]; 16 g ai/ha Preemergence): 65; Plant response rating, Nightshade ([8]; 31 g ai/ha Preemergence): 80; Plant response rating, Nightshade ([8]; 125 g ai/ha Preemergence): 98; Plant response rating, Nightshade ([8]; Preemergence): 90; Plant response rating, Pigweed, Palmer ([9]; 8 g ai/ha Postemergence): 50; Plant response rating, Pigweed, Palmer ([9]; 8 g ai/ha Preemergence): 0; Plant response rating, Pigweed, Palmer ([9]; 16 g ai/ha Postemergence): 50; Plant response rating, Pigweed, Palmer ([9]; 16 g ai/ha Preemergence): 0; Plant response rating, Pigweed, Palmer ([9]; 31 g ai/ha Postemergence): 50; Plant response rating, Pigweed, Palmer ([9]; 31 g ai/ha Preemergence): 0; Plant response rating, Pigweed, Palmer ([9]; 62 g ai/ha Postemergence): 70; Plant response rating, Pigweed, Palmer ([9]; 125 g ai/ha Postemergence): 60; Plant response rating, Pigweed, Palmer ([9]; 125 g ai/ha Preemergence): 35; Plant response rating, Pigweed, Palmer ([9]; Preemergence): 35; Plant response rating, Ragweed ([10]; 8 g ai/ha Preemergence): 0; Plant response rating, Ragweed ([10]; 16 g ai/ha Preemergence): 0; Plant response rating, Ragweed ([10]; 31 g ai/ha Preemergence): 0; Plant response rating, Ragweed ([10]; 125 g ai/ha Preemergence): 75; Plant response rating, Ragweed ([10]; Preemergence): 25; Plant response rating, Velvetleaf ([11]; 8 g ai/ha Preemergence): 20; Plant response rating, Velvetleaf ([11]; 16 g ai/ha Preemergence): 70; Plant response rating, Velvetleaf ([11]; 31 g ai/ha Preemergence): 100; Plant response rating, Velvetleaf ([11]; 125 g ai/ha Preemergence): 100; Plant response rating, Velvetleaf ([11]; Preemergence): 100; Plant response rating, Waterhemp ([12]; 8 g ai/ha Postemergence): 65; Plant response rating, Waterhemp ([12]; 8 g ai/ha Preemergence): 20; Plant response rating, Waterhemp ([12]; 16 g ai/ha Postemergence): 60; Plant response rating, Waterhemp ([12]; 16 g ai/ha Preemergence): 75; Plant response rating, Waterhemp ([12]; 31 g ai/ha Postemergence): 65; Plant response rating, Waterhemp ([12]; 31 g ai/ha Preemergence): 75; Plant response rating, Waterhemp ([12]; 62 g ai/ha Postemergence): 80; Plant response rating, Waterhemp ([12]; 125 g ai/ha Postemergence): 90; Plant response rating, Waterhemp ([12]; 125 g ai/ha Preemergence): 100; Plant response rating, Waterhemp ([12]; Preemergence): 90; Plant response rating, Poinsettia, Wild ([13]; 8 g ai/ha Postemergence): 30; Plant response rating, Poinsettia, Wild ([13]; 8 g ai/ha Preemergence): 0; Plant response rating, Poinsettia, Wild ([13]; 16 g ai/ha Postemergence): 30; Plant response rating, Poinsettia, Wild ([13]; 16 g ai/ha Preemergence): 0; Plant response rating, Poinsettia, Wild ([13]; 31 g ai/ha Postemergence): 60; Plant response rating, Poinsettia, Wild ([13]; 31 g ai/ha Preemergence): 20; Plant response rating, Poinsettia, Wild ([13]; 62 g ai/ha Postemergence): 50; Plant response rating, Poinsettia, Wild ([13]; 125 g ai/ha Postemergence): 60; Plant response rating, Poinsettia, Wild ([13]; 125 g ai/ha Preemergence): 20; Plant response rating, Poinsettia, Wild ([13]; Preemergence): 20; Plant response rating, Nutsedge, Yellow ([14]; 8 g ai/ha Preemergence): 0; Plant response rating, Nutsedge, Yellow ([14]; 16 g ai/ha Preemergence): 0; Plant response rating, Nutsedge, Yellow ([14]; 31 g ai/ha Preemergence): 0; Plant response rating, Nutsedge, Yellow ([14]; 125 g ai/ha Preemergence): 0; Plant response rating, Nutsedge, Yellow ([14]; Preemergence): 0
